# Measurements reported in PubChem BioAssay (NCI).
#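 Protocol summary: plate cells (96-well), add compound at 5 concentrations, incubate 48 h, interpolate endpoints linearly. GI50 = concentration required for 50% inhibition of growth. At the TGI there is no net growth.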
# Legend:
# Test in all cases: NCI tumour cell line growth inhibition, 48 h
# NCI-H460 lung = system: NCI-H460 lung
# T-47D breast = system: T-47D breast
# COLO 205 colon = system: COLO 205 colon
# K-562 leukemia = system: K-562 leukemia
# IGROV1 ovarian = system: IGROV1 ovarian
# BT-549 breast = system: BT-549 breast
# HL-60(TB) leukemia = system: HL-60(TB) leukemia
Structure (SMILES),GI50 (NCI-H460 lung) [µM],TGI (NCI-H460 lung) [µM],GI50 (T-47D breast) [µM],TGI (T-47D breast) [µM],GI50 (COLO 205 colon) [µM],TGI (COLO 205 colon) [µM],GI50 (K-562 leukemia) [µM],TGI (K-562 leukemia) [µM],GI50 (IGROV1 ovarian) [µM],TGI (IGROV1 ovarian) [µM],GI50 (BT-549 breast) [µM],TGI (BT-549 breast) [µM],GI50 (HL-60(TB) leukemia) [µM],TGI (HL-60(TB) leukemia) [µM]
CC(C)c1c(C(=O)Nc2ccccc2)c(-c2ccccc2)c(-c2ccc(F)cc2)n1CC[C@@H](O)C[C@@H](O)CC(=O)O,41.3,> 100,32.1,> 100,24.5,> 78.9,31.2,> 100,22.2,> 100,15.6,41.7,20.9,> 96.7
COc1ccc2c(c1)c(-c1nc(-c3cn(C)c4ncccc34)cs1)cn2CCCCN1CCCCC1,1.68,3.2,,,,,,,,,1.64,3.05,,
CC(C)OC(=O)OCOP(=O)(OCOC(=O)OC(C)C)C1CCCN(O)C1=O (stereo not given),1.14,> 100,1.98,> 100,3.71,> 100,0.81,> 100,0.565,12.6,0.468,11.7,2.48,> 100
CC(=O)Nc1ccc(S(=O)(=O)N2C(=O)CCC2C(=O)Nc2ccccc2)cc1 (stereo not given),0.359,15.3,0.283,14.6,0.872,4.38,0.258,10.2,2.32,26.9,1.57,14.6,1.64,15.2
COc1ncc(-c2ccc3nc(N)n(-c4ccccc4C(F)(F)F)c(=O)c3c2)cc1S(=O)(=O)Nc1ccc(F)cc1F,5.03,36.6,0.425,> 100,0.511,1.82,5.73,> 100,1.15,> 100,1.57,6.7,1.42,5.24
Cc1ccccc1C1N=C2Oc3ccccc3C=C2C(=O)N1 (stereo not given),4.34,> 100,1.58,> 100,1.46,15,4.01,> 100,9.85,> 100,7.32,> 100,2.42,17.7
FC(F)(F)c1ccc(-c2cnc(-c3nn[nH]n3)nc2NC2CCCCCC2)cc1,> 10,> 10,> 10,> 10,> 10,> 10,> 10,> 10,> 10,> 10,> 10,> 10,> 10,> 10
N/C(=N\O)c1cn(C2OC(CO)C(O)C2O)c2ncnc(N)c12 (stereo not given),0.138,0.987,0.108,,0.131,0.601,0.281,> 100,0.263,20.7,0.311,17.7,0.117,0.858
O=C(/C=C/c1c[nH]c2ccccc12)c1ccccc1O,,28.3,,7.29,,,,> 100,,36.4,,28.3,,> 100
C=C1C(=O)O[C@H]2[C@H]1CC/C(COC(=O)NCc1ccc(Cn3c(=O)sn(CCCI)c3=O)cc1)=C\CC[C@@]1(C)O[C@@H]21,3.2,10.3,1.79,3.84,1.95,3.66,0.342,> 100,1.75,3.84,1.37,2.84,0.307,2.71
CC1(C)N=C(N)N=C(N)N1c1cccc(CC(=O)Nc2ccccc2)c1,3.63,> 100,> 100,> 100,47.3,> 100,2.87,> 100,8.48,> 100,45.1,> 100,6,> 100
N#CCC1CCN(c2nc(Nc3ccc(N4CCC(O)CC4)cc3)c3c(=O)[nH]ncc3n2)CC1,0.692,> 100,2.05,> 100,0.374,,1.51,> 100,0.266,2.95,1.28,> 100,,
C/C=C/C(C/C=C(\C)CO[Si](C)(C)C(C)(C)C)O[Si](C)(C)C(C)(C)C (stereo not given),,> 100,,> 100,,> 100,,> 100,,> 100,,,,> 100
CCc1ccc2cc3c(ccc4ccccc43)c3c2c1CC3,> 100,> 100,> 100,> 100,> 100,> 100,> 100,> 100,> 100,> 100,> 100,> 100,,
C/C(=N\NC(N)=O)C(CN1CCOCC1)C(c1ccccc1)c1c(O)c2ccccc2oc1=O (stereo not given),,,,,,> 100,,> 100,,> 100,,> 100,,> 100
CCN(CC)c1ccc(C=C2C(=O)NC(=S)NC2=O)cc1,3.99,15.1,9.62,25.7,2.49,6.62,3.1,10.7,,,2.27,4.74,2.6,7.58
C=CN(C(=O)N1CCN(c2cc3c(cc2F)c(=O)c(C(=O)O)cn3C2CC2)CC1)c1nc(-c2ccc(C)cc2)cs1,3.38,> 100,,,2.09,4.72,1.96,> 100,3.42,> 100,0.306,2.11,,
N=C(N)c1ccc(-c2ccc(-c3cccs3)s2)cc1F,0.0436,1.05,1.49,3.48,0.202,0.39,0.341,1.31,2.28,4.74,,,1.79,3.83
Fc1cnccc1-c1nc2ccc3[nH]ncc3c2c2c1CCCC2,1.41,7.74,1.51,9.01,,,2.63,> 100,0.688,11.2,1.28,7.74,2.2,7.3
